IC50 data for 33 compounds are collected here from US20060223996A1, “IL-12 modulatory compounds” (Synta Pharmaceuticals Corp., priority 2004, published 2006).

For this assay, the system named is IL-12. As to the kind of experiment: Human in vitro assay: inhibition of IL-12 production in IFNγ/LPS- or IFNγ/SAC-stimulated human PBMC or THP-1 cells (ELISA). It counts as cell-based. Conditions: read-out: IC50 Range (representative in vitro IC50 data). The gist of the method: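 Sandwich ELISA for IL-12 (p70, p40) on supernatants collected 18 h after stimulation gave IC50 values; MTS monitored viability. THP-1 cells: IFNγ 100 U/mL priming 22 h, SAC 0.025%. PBMC: IFNγ 30 U/mL for 22 h plus LPS 1 μg/mL, or IFNγ 100 U/mL plus SAC 0.01%. Final DMSO 0.25%.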
A general note: ELISA stands for enzyme-linked immunosorbent assay.

On to `O=C(Nc1ccc2[nH]c(C(F)(F)F)nc2c1)c1cc(NCCN2CCOCC2)nc(N2CCOCC2)n1` [Compound 190, 2-morpholino-6-(2-morpholinoethylamino)-N-(2-(trifluoromethyl)-1H-benzo[d]imidazol-5-yl)pyrimidine-4-carboxamide], for which the 50% inhibitory concentration (IC50) was at least 1000 nM.
With `O=C(Nc1ccc(C(F)(F)F)cc1)c1cc(NCCN2CCOCC2)nc(N2CCOCC2)n1` [Compound 191, 2-morpholino-6-(2-morpholinoethylamino)-N-(4-(trifluoromethyl)phenyl)pyrimidine-4-carboxamide], the IC50 was at least 1000 nM.
In the case of `O=C(Nc1ccc2c(C(F)(F)F)cc(=O)oc2c1)c1cc(NCCN2CCOCC2)nc(N2CCOCC2)n1` [Compound 192, 2-morpholino-6-(2-morpholinoethylamino)-N-(2-oxo-4-(trifluoromethyl)-2H-chromen-7-yl)pyrimidine-4-carboxamide], the IC50 is at least 1000 nM.
Turning to `CON(C)c1cc(C(=O)Nc2ccc3[nH]c(C)c(C)c3c2)nc(N2CCOCC2)n1` [Compound 193, N-(2,3-dimethyl-1H-indol-5-yl)-6-(methoxy(methyl)amino)-2-morpholinopyrimidine-4-carboxamide], the half-inhibitory concentration (IC50) was under 1000 nM.
Consider `Cc1[nH]c2ccc(NC(=O)c3cc(NCCO)nc(N4CCOCC4)n3)cc2c1C` [Compound 194, N-(2,3-dimethyl-1H-indol-5-yl)-6-(2-hydroxyethylamino)-2-morpholinopyrimidine-4-carboxamide], for which the IC50 is under 1000 nM.
Regarding `CON(CCN1CCOCC1)c1cc(C(=O)Nc2ccc3[nH]c(C)c(C)c3c2)nc(N2CCOCC2)n1` [Compound 195, N-(2,3-dimethyl-1H-indol-5-yl)-6-(methoxy(2-morpholinoethyl)amino)-2-morpholinopyrimidine-4-carboxamide], the concentration for half-maximal inhibition (IC50) is under 1000 nM.
The value for `CONc1cc(C(=O)Nc2cccc(N(C)C)c2)nc(N2CCOCC2)n1` [Compound 196, N-(3-(dimethylamino)phenyl)-6-(methoxyamino)-2-morpholinopyrimidine-4-carboxamide] was under 1000 nM; that for `O=C1Cc2cc(NC(=O)c3cc(OCCN4CCOCC4)nc(N4CCOCC4)n3)ccc2N1` [Compound 197, 2-morpholino-6-(2-morpholinoethoxy)-N-(2-oxoindolin-5-yl)pyrimidine-4-carboxamide] was at least 1000 nM.
As to `CCN(CC)C(=O)Nc1cccc(NC(=O)c2cc(OCCN3CCOCC3)nc(N3CCOCC3)n2)c1` [Compound 198, N-(3-(3,3-diethylureido)phenyl)-2-morpholino-6-(2-morpholinoethoxy)pyrimidine-4-carboxamide], the 50% inhibitory concentration (IC50) was at least 1000 nM.
Take `O=C1COc2ccc(NC(=O)c3cc(OCCN4CCOCC4)nc(N4CCOCC4)n3)cc2N1` [Compound 199, 2-morpholino-6-(2-morpholinoethoxy)-N-(3-oxo-3,4-dihydro-2H-benzo[b][1,4]oxazin-6-yl)pyrimidine-4-carboxamide]: the 50% inhibitory concentration (IC50) is at least 1000 nM.
As to `COCCN(C)c1cc(C(=O)Nc2ccc3c(c2)OCCO3)nc(N2CCOCC2)n1` [Compound 200, N-(2,3-dihydrobenzo[b][1,4]dioxin-6-yl)-6-((2-methoxyethyl)(methyl)amino)-2-morpholinopyrimidine-4-carboxamide], the IC50 was at least 1000 nM.
With `COCCN(C)c1cc(C(=O)Nc2nc(C(C)(C)C)cs2)nc(N2CCOCC2)n1` [Compound 201, N-(4-tert-butylthiazol-2-yl)-6-((2-methoxyethyl)(methyl)amino)-2-morpholinopyrimidine-4-carboxamide], the IC50 was at least 1000 nM.
With `COCCN(C)c1cc(C(=O)Nc2ccc3nc(C)ccc3c2)nc(N2CCOCC2)n1` [Compound 202, 6-((2-methoxyethyl)(methyl)amino)-N-(2-methylquinolin-6-yl)-2-morpholinopyrimidine-4-carboxamide], the half-maximal inhibitory concentration (IC50) was at least 1000 nM.
With `COCCN(C)c1cc(C(=O)Nc2nc3cc(C)c(C)cc3s2)nc(N2CCOCC2)n1` [Compound 203, N-(5,6-dimethylbenzo[d]thiazol-2-yl)-6-((2-methoxyethyl)(methyl)amino)-2-morpholinopyrimidine-4-carboxamide], the IC50 was at least 1000 nM.
Consider `CCOc1cc(N2CCOCC2)c(OCC)cc1NC(=O)c1cc(N(C)CCOC)nc(N2CCOCC2)n1` [Compound 204, N-(2,5-diethoxy-4-morpholinophenyl)-6-((2-methoxyethyl)(methyl)amino)-2-morpholinopyrimidine-4-carboxamide], for which the half-maximal inhibitory concentration (IC50) is at least 1000 nM.
For the compound `COCCN(C)c1cc(C(=O)Nc2cccc(C(C)C)c2)nc(N2CCOCC2)n1` [Compound 205, N-(3-isopropylphenyl)-6-((2-methoxyethyl)(methyl)amino)-2-morpholinopyrimidine-4-carboxamide], the half-inhibitory concentration (IC50) was under 1000 nM.
With `COCCN(C)c1cc(C(=O)Nc2ccc3c(c2)CCN3C(C)=O)nc(N2CCOCC2)n1` [Compound 206, N-(1-acetylindolin-5-yl)-6-((2-methoxyethyl)(methyl)amino)-2-morpholinopyrimidine-4-carboxamide] the figure was at least 1000 nM; with `COCCN(C)c1cc(C(=O)Nc2cccc(-c3nc(C)no3)c2)nc(N2CCOCC2)n1` [Compound 207, 6-((2-methoxyethyl)(methyl)amino)-N-(3-(3-methyl-1,2,4-oxadiazol-5-yl)phenyl)-2-morpholinopyrimidine-4-carboxamide], at least 1000 nM; with `COCCN(C)c1cc(C(=O)Nc2cccc(-c3nncn3C)c2)nc(N2CCOCC2)n1` [Compound 208, 6-((2-methoxyethyl)(methyl)amino)-N-(3-(4-methyl-4H-1,2,4-triazol-3-yl)phenyl)-2-morpholinopyrimidine-4-carboxamide], at least 1000 nM.
For `COCCN(C)c1cc(C(=O)Nc2cccc(C(F)(F)F)c2)nc(N2CCOCC2)n1` [Compound 209, 6-((2-methoxyethyl)(methyl)amino)-2-morpholino-N-(3-(trifluoromethyl)phenyl)pyrimidine-4-carboxamide], the half-maximal inhibitory concentration (IC50) is at least 1000 nM.
With `COCCN(C)c1cc(C(=O)Nc2ccc3c(c2)OCO3)nc(N2CCOCC2)n1` [Compound 210, N-(benzo[d][1,3]dioxol-5-yl)-6-((2-methoxyethyl)(methyl)amino)-2-morpholinopyrimidine-4-carboxamide] the figure was at least 1000 nM.
As for `COCCN(C)c1cc(C(=O)Nc2ccc3c(c2)N(C)CC3)nc(N2CCOCC2)n1` [Compound 211, 6-((2-methoxyethyl)(methyl)amino)-N-(1-methylindolin-6-yl)-2-morpholinopyrimidine-4-carboxamide], the IC50 is under 1000 nM.
As for `COCCN(C)c1cc(C(=O)Nc2cc(N(C)C)ccc2F)nc(N2CCOCC2)n1` [Compound 212, N-(5-(dimethylamino)-2-fluorophenyl)-6-((2-methoxyethyl)(methyl)amino)-2-morpholinopyrimidine-4-carboxamide], the IC50 is at least 1000 nM.
`CC(C)c1cccc(NC(=O)c2cc(OCCN3CCOCC3)nc(N3CCOCC3)n2)c1` [Compound 213, N-(3-isopropylphenyl)-2-morpholino-6-(2-morpholinoethoxy)pyrimidine-4-carboxamide]: the half-maximal inhibitory concentration (IC50) was at least 1000 nM.
In the case of `CN1CCc2ccc(NC(=O)c3cc(OCCN4CCOCC4)nc(N4CCOCC4)n3)cc21` [Compound 214, N-(1-methylindolin-6-yl)-2-morpholino-6-(2-morpholinoethoxy)pyrimidine-4-carboxamide], the IC50 was under 1000 nM.
For the compound `COCCN(C)c1cc(C(=O)Nc2ccc(F)c(N(C)C)c2)nc(N2CCOCC2)n1` [Compound 215, N-(3-(dimethylamino)-4-fluorophenyl)-6-((2-methoxyethyl)(methyl)amino)-2-morpholinopyrimidine-4-carboxamide], the IC50 was under 1000 nM.
As to `Cn1ncc2ccc(NC(=O)c3cc(OCCN4CCOCC4)nc(N4CCOCC4)n3)cc21` [Compound 216, N-(1-methyl-1H-indazol-6-yl)-2-morpholino-6-(2-morpholinoethoxy)pyrimidine-4-carboxamide], the IC50 was at least 1000 nM.
`COCCN(C)c1cc(C(=O)Nc2ccc3cnn(C)c3c2)nc(N2CCOCC2)n1` [Compound 217, 6-((2-methoxyethyl)(methyl)amino)-N-(1-methyl-1H-indazol-6-yl)-2-morpholinopyrimidine-4-carboxamide]: the 50% inhibitory concentration (IC50) is at least 1000 nM.
On to `Cn1c(=O)oc2ccc(NC(=O)c3cc(OCCN4CCOCC4)nc(N4CCOCC4)n3)cc21` [Compound 218, N-(3-methyl-2-oxo-2,3-dihydrobenzo[d]oxazol-5-yl)-2-morpholino-6-(2-morpholinoethoxy)pyrimidine-4-carboxamide], for which the IC50 is under 1000 nM.
With `CN1C(=O)C(C)(C)c2cc(NC(=O)c3cc(OCCN4CCOCC4)nc(N4CCOCC4)n3)ccc21` [Compound 219, 2-morpholino-6-(2-morpholinoethoxy)-N-(1,3,3-trimethyl-2-oxoindolin-5-yl)pyrimidine-4-carboxamide], the concentration for half-maximal inhibition (IC50) is under 1000 nM.
For the compound `CCn1ccc2ccc(NC(=O)c3cc(OCCN4CCOCC4)nc(N4CCOCC4)n3)cc21` [Compound 220, N-(1-ethyl-1H-indol-6-yl)-2-morpholino-6-(2-morpholinoethoxy)pyrimidine-4-carboxamide], the IC50 was under 1000 nM.
In the case of `CCN1CCc2ccc(NC(=O)c3cc(OCCN4CCOCC4)nc(N4CCOCC4)n3)cc21` [Compound 221, N-(1-ethylindolin-6-yl)-2-morpholino-6-(2-morpholinoethoxy)pyrimidine-4-carboxamide], the half-maximal inhibitory concentration (IC50) is under 1000 nM.
For the compound `CCc1c(C)[nH]c2ccc(NC(=O)c3cc(OCCN4CCOC4=O)nc(N4CCOCC4)n3)cc12` [Compound 222, 2-Morpholin-4-yl-6-[2-(2-oxo-oxazolidin-3-yl)-ethoxy]-pyrimidine-4-carboxylic acid (3-ethyl-2-methyl-1H-indol-5-yl)-amide], the IC50 is under 1000 nM.

A word on the IC50: it is the concentration at which inhibition is half-maximal.
